What all share (assay type): cell-based
For assay [1], the system named is A375 (K-Ras wild type cell line). Description: Viability assay (CellTiterBlue, 72 hr) A375. The note with it: Homo sapiens, A-375, GI50, CellTiterBlue. The gist of the method: (§1)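 Each line was plated at 1000 cells per well and incubated for 72 hr with compound after an 18 hr settling period. CellTiterBlue fluorescence measured the result, and GI50 was fitted relative to DMSO and tamoxifen controls.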
Background: The colour change of resazurin is a common sign of viable cells or microbes.

For assay [2], the system named is phospho-Akt in A375 (Wild-type). Description: In-Cell Western phospho-Akt, A375. The note with it: Homo sapiens, A-375, 1 h; A375, one hour treatment; read-out: In-Cell Western A375 (Wild-type) Akt (P). The gist of the method: (§2)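 Following an 18 hr settle at 37° C, seeded cells receive test compound for 1 hr before fixation and staining with phospho-Akt and phospho-ERK primary antibodies (overnight, 4° C) plus a goat anti-rabbit secondary. Plates are imaged and fluorescence quantitated to give EC50.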

For assay [3], the system named is phospho-ERK in Panc1 (G12D). Briefly: In-Cell Western phospho-ERK, Panc1. Particulars: Homo sapiens, PANC-1, 1 h; Panc1, one hour treatment; read-out: In-Cell Western Panc1 (G12D) Erk (P). An outline of the steps:
as §2

Assay [4] relates to HCC827 (K-Ras wild type cell line). Briefly: Viability assay (CellTiterBlue, 72 hr) HCC827. Particulars: Homo sapiens, GI50, CellTiterBlue, HCC827 K-Ras wild-type. An outline of the steps: as §1
Assay [5] has as its system phospho-Akt in Panc1 (G12D). Briefly: In-Cell Western phospho-Akt, Panc1. The note with it: Homo sapiens, PANC-1, 1 h; Panc1, one hour treatment; read-out: In-Cell Western Panc1 (G12D) Akt (P). The gist of the method: as §2
Assay [6] has as its system phospho-ERK in A375 (Wild-type). Description: In-Cell Western phospho-ERK, A375. The note with it: Homo sapiens, A-375, 1 h; A375, one hour treatment; read-out: In-Cell Western A375 (Wild-type) Erk (P). The gist of the method:
as §2

Assay [7] concerns Panc10.05-G12D. Briefly: Viability assay (CellTiterBlue, 72 hr) Panc10.05. The note with it: Homo sapiens, Panc1005, GI50, CellTiterBlue, Panc10.05 K-Ras G12D, read-out: 72 hr Cell Viability Panc10.05 (G12D). An outline of the steps:
as §1

Assay [8] relates to phospho-ERK in HCC827 (Wild-type). Description: In-Cell Western phospho-ERK, HCC827. Particulars: Homo sapiens, 1 h; HCC827, one hour treatment; read-out: In-Cell Western HCC827 (Wild-type) Erk (P). An outline of the steps:
as §2

Assay [9] deals with Ishikawa (K-Ras wild type cell line). Briefly: Viability assay (CellTiterBlue, 72 hr) Ishikawa. Particulars: Homo sapiens, GI50, CellTiterBlue, Ishikawa K-Ras wild-type. An outline of the steps:
as §1

The target of assay [10] is T1, K-Ras G12D (Homo sapiens, UniProt P01116, G12D).
T1 construct: expressed in transfected cells; host or cells: 293H cells
Briefly: G-LISA Ras activation, 293H cells transfected with G12D mutant. Particulars: compound 1 hour. The gist of the method:
(§3)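 G-LISA Ras-GTP readout; 293H transfectants treated 1 h with 3.125-25 μM compound, EGF pulse (100 ng/ml, 2 min) for wild-type only.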

Assay [11] has as its target T2, wild type K-Ras (Homo sapiens, UniProt P01116).
T2 construct: expressed in transfected cells; host or cells: 293H cells
Briefly: G-LISA Ras activation, 293H cells transfected with Ras wild-type, EGF stimulated. Particulars: compound 1 hour, then 100 ng/ml EGF 2 minutes. An outline of the steps: as §3

In assay [12] the test system is U87-MG (K-Ras wild type cell line). Description: Viability assay (CellTiterBlue, 72 hr) U87-MG. Particulars: Homo sapiens, U-87 MG, GI50, CellTiterBlue, U87-MG K-Ras wild-type. An outline of the steps:
as §1

For assay [13], the system named is phospho-Akt in Panc10.05 (G12D). Description: In-Cell Western phospho-Akt, Panc10.05. The note with it: Homo sapiens, Panc1005, 1 h; Panc10.05, one hour treatment; read-out: In-Cell Western Panc10.05 (G12D) Akt (P). The gist of the method:
as §2

Assay [14] deals with Panc1-G12D. Briefly: Viability assay (CellTiterBlue, 72 hr) Panc1. The note with it: Homo sapiens, PANC-1, GI50, CellTiterBlue, Panc1 K-Ras G12D, read-out: 72 hr Cell Viability Panc1 (G12D). The gist of the method:
as §1

Assay [15] concerns phospho-ERK in Panc10.05 (G12D). Description: In-Cell Western phospho-ERK, Panc10.05. The note with it: Homo sapiens, Panc1005, 1 h; Panc10.05, one hour treatment; read-out: In-Cell Western Panc10.05 (G12D) Erk (P). An outline of the steps: as §2
Assay [16] relates to HCT116-G31D. Briefly: Viability assay (CellTiterBlue, 72 hr) HCT116. Particulars: Homo sapiens, HCT-116, GI50, CellTiterBlue, HCT116 K-Ras G13D, read-out: 72 hr Cell Viability HCT116 (G13D). An outline of the steps:
as §1

Where only a bound is given, the exact number is not on record here.

T2 sequence (P01116 whole entry): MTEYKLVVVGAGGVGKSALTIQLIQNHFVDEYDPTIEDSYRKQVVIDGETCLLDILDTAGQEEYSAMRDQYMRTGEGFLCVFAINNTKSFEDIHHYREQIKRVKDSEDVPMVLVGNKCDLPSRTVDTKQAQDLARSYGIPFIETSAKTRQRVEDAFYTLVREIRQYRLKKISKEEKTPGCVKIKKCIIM
T1 sequence (P01116 whole entry G12D): as the sequence (P01116 whole entry) above, with G12D counted along it

Consider `Cn1nc(C(C)(C)C)cc1C(=O)Nc1nc(-c2ccc3c(c2)CCC(=O)N3)cs1` [Compound 43, 3-(tert-butyl)-1-methyl-N-(4-(2-oxo-1,2,3,4-tetrahydroquinolin-6-yl)thiazol-2-yl)-1H-pyrazole-5-carboxamide], for which the IC50 is more than 25 µM in assay [1]; more than 25 µM in assay [4]; more than 25000 nM in [7]; more than 25 µM in assay [9]; more than 25 µM in assay [10]; more than 25 µM in [11]. Moreover, the IC50 in [12], in [14] and in assay [16] was more than 25 µM in each case. In addition, the EC50 in [2] was more than 25 µM; in assay [3], more than 25 µM; in [5], more than 25 µM; in assay [6], more than 25 µM; in [8], 19 µM; in assay [13], more than 25 µM. The EC50 in [15] was more than 25000 nM.
Take `COCCN1C(=O)CCc2cc(-c3csc(NC(=O)c4oc(C)nc4C)n3)ccc21` [Compound 95, N-(4-(1-(2-methoxyethyl)-2-oxo-1,2,3,4-tetrahydroquinolin-6-yl)thiazol-2-yl)-2,4-dimethyloxazole-5-carboxamide]: the IC50 in [1] is more than 25 µM; in assay [4], 5 µM; in assay [7] it was 4000 nM; in [9], more than 25 µM; in [10], 5.1 µM; in assay [11] it was 15.4 µM. For the same compound, the IC50 is more than 25 µM in assay [12], 7 µM in assay [14] and 4 µM in [16]. Also, the EC50 is more than 25 µM in assay [2]; 10 µM in assay [3]; 6 µM in assay [5]; more than 25 µM in [6]; 10 µM in assay [8]; 14 µM in assay [13]. Also, the EC50 in assay [15] turned out to be 2000 nM.
Consider `Cc1nn(C)cc1C(=O)Nc1nc(-c2ccc3c(c2)CCC(=O)N3Cc2cccnc2)cs1` [Compound 112, 1,3-dimethyl-N-(4-(2-oxo-1-(pyridin-3-ylmethyl)-1,2,3,4-tetrahydroquinolin-6-yl)thiazol-2-yl)-1H-pyrazole-4-carboxamide], for which the IC50 in assay [1] is more than 25 µM; in assay [4], 4 µM; in assay [7], 3000 nM; in assay [9], more than 25 µM; in assay [10], 10 µM; in [11] it was 10.7 µM. Further, the values for the IC50 in assay [12], in assay [14] and in assay [16] were more than 25 µM, 5 µM and 2 µM, respectively. In addition, the EC50 in assay [2] was found to be 11 µM; in [3], 4 µM; in assay [5] it was 5 µM; in assay [6], 8 µM; in assay [8] it was 17 µM; in [13] it was 18 µM. Further, the EC50 in assay [15] amounted to 1000 nM.
As to `Cc1nc(C(C)C)oc1C(=O)Nc1nc(-c2ccc3c(c2)CCC(=O)N3Cc2cccnc2)cs1` [Compound 91], the IC50 in assay [1] is more than 25 µM; in [4] it was 3 µM; in assay [7], 2000 nM; in assay [9] it was more than 25 µM; in assay [10], 8.4 µM; in assay [11], 11.7 µM. Moreover, the IC50 in [12] is more than 25 µM; in assay [14] it was 5 µM; in assay [16], 1.5 µM. Besides, the EC50 in assay [2] worked out at 5 µM; in assay [3], 8 µM; in assay [5], 4 µM; in assay [6] it was 5 µM; in [8], 11 µM; in assay [13] it was 12 µM. Moreover, the EC50 in assay [15] amounted to 1400 nM.
In the case of `Cc1nc(C)c(C(=O)Nc2nc(-c3ccc4c(c3)CCC(=O)N4CCN(C)C)cs2)o1` [Compound 97, N-(4-(1-(2-(dimethylamino)ethyl)-2-oxo-1,2,3,4-tetrahydroquinolin-6-yl)thiazol-2-yl)-2,4-dimethyloxazole-5-carboxamide], the IC50 in assay [1] is more than 25 µM; in [4], 5 µM; in assay [7], 4000 nM; in [9] it was more than 25 µM; in [10] it was 8.1 µM; in [11], 12.6 µM. Moreover, the IC50 is more than 25 µM in assay [12], 9 µM in assay [14] and 5 µM in assay [16]. The EC50 in [2] was 10 µM; in assay [3] it was 5 µM; in assay [5], 6 µM; in assay [6], 8 µM; in [8], more than 25 µM; in assay [13], 12 µM. Also, in assay [15], the EC50 turned out to be 1200 nM.
Regarding `Cc1nc(C2CCC2)oc1C(=O)Nc1nc(-c2ccc3c(c2)CCC(=O)N3Cc2cccnc2)cs1` [Compound 92, 2-cyclobutyl-4-methyl-N-(4-(2-oxo-1-(pyridin-3-ylmethyl)-1,2,3,4-tetrahydroquinolin-6-yl)thiazol-2-yl)oxazole-5-carboxamide], the IC50 in assay [1] is more than 25 µM; in [4], 4 µM; in assay [7], 3000 nM; in [9], more than 25 µM; in assay [10] it was 8.5 µM; in [11] it was 15.2 µM. Moreover, the values for the IC50 in assay [12], in assay [14] and in assay [16] were more than 25 µM, 6 µM and 1.5 µM, respectively. Moreover, the EC50 in assay [2] was more than 25 µM; in assay [3], 6 µM; in assay [6] it was more than 25 µM; in assay [8], 15 µM; in [13] it was 17 µM; in assay [15] it was 2000 nM.
As to `CCn1nc(C2CC2)cc1C(=O)Nc1nc(-c2ccc3c(c2)CCC(=O)N3)cs1` [Compound 45, 3-cyclopropyl-1-ethyl-N-(4-(2-oxo-1,2,3,4-tetrahydroquinolin-6-yl)thiazol-2-yl)-1H-pyrazole-5-carboxamide], the IC50 was more than 25 µM in assay [1]; more than 25 µM in assay [4]; 3000 nM in [7]; more than 25 µM in assay [9]; 8.8 µM in assay [10]; more than 25 µM in assay [12]. The IC50 in [14] and in assay [16] was more than 25 µM in each case. The EC50 in [2] was more than 25 µM; in [3], more than 25 µM; in [5], more than 25 µM; in assay [6], more than 25 µM; in assay [8] it was more than 25 µM; in [13], 11 µM. For the same compound, the EC50 in [15] is 6000 nM.
On to `Cc1nc(C)c(C(=O)Nc2nc(-c3ccc4c(c3)CCC(=O)N4CCC(=O)N(C)C)cs2)o1` [Compound 103, N-(4-(1-(3-(dimethylamino)-3-oxopropyl)-2-oxo-1,2,3,4-tetrahydroquinolin-6-yl)thiazol-2-yl)-2,4-dimethyloxazole-5-carboxamide], for which the IC50 was more than 25 µM in assay [1]; more than 25 µM in assay [4]; 5000 nM in [7]; more than 25 µM in [9]; 14.9 µM in assay [10]; more than 25 µM in [12]. In addition, the IC50 was more than 25 µM in assay [14] and 25 µM in [16]. The EC50 in [2] was more than 25 µM; in assay [3] it was more than 25 µM; in assay [5], more than 25 µM; in assay [6], 29 µM; in assay [8], 14 µM; in [13], more than 25 µM. For the same compound, the EC50 in [15] was more than 25000 nM.

The values are drawn from US10344026B2, “Compositions and methods of targeting mutant K-ras” (NANTBIO, INC., priority 2017, dated 2019).
